Results as given in patent US20240263133A1, “PROCESS FOR THE ISOLATION AND CULTURE OF STRAINS, THE STRAINS, USE THEREOF, MEDIA FOR CULTURING THEREOF AND A FORM OF SCYTONEMIN” (UVERA SA, priority 2021, published 2024).

Key:
[1] = Thermogravimetric/differential thermal analysis (TG/DTA), thermal decomposition; type: physicochemical; details: argon, heating 15 ° C./minute, 3.7 mg
Experimental: 3.7 mg of the sample was weighed out into an alumina crucible and 34.6 mg of pure gold wire (99.999%) was added to balance the rod weight with the microbalance counterweight.
• Argon flow at 2 atm • Sample weight: 3.7 mg • Crucible: 100 μL Al2O3 • Reference crucible: Al2O3 • Temperature ramp:
Weight losses in successive stages were calculated based on the thermogravimetric curve, and the presence of exothermic and endothermic processes during sample heating were determined from the heat flow curve.

[2] = Storage stability in room conditions, absorbance spectra before and after; type: physicochemical; details: 25° C., 10 months
Experimental: The compound prepared in Example 1 was stored in room conditions (temp. 25° C.) for 10 months. Absorbance spectra before and after the storage test are identical, which confirms stability of the compound. […] The crystalline form of scytonemin of the invention is stable.

[3] = cited from earlier work
[4] = UV absorption, specific extinction in DMSO by spectrophotometer; type: physicochemical; details: 1% by weight, 1 cm cuvette
Experimental: A scytonemin sample obtained according to Example 1 was dissolved in DMSO (dimethylsulfoxide) to a concentration of 1% by weight and subsequently, with a spectrophotometer used according to the standard procedures (manufacturer: Varian, model: CARY 100 Scan) absorbance was measured for two wavelengths (305 and 393 nm) in a cuvette with 1 cm thickness.

[5] = Degree of scytonemin dispersion in selected solutions used in cosmetics; type: physicochemical; details: for dispersion level: shaker 1 min, ultrasonic bath 10 min
Experimental: 0.5 mg scytonemin was weighed out on an analytical balance and suspended in 1 g of the solution: • 1) Propylene glycol (INCI: Propylene Glycol) • 2) Refined apricot oil (INCI: Prunus Armeniaca (Apricot) Kernel Oil) • 3) Glycerin (INCI: Glycerin) • 4) Isohexadecane (INCI: Isohexadecane) • 5) 2-octyldodecan-1-ol ODD (INCI: Octyldodecanol) • 6) SLP Emulsifier (INCI: Sorbitan Laurate/Polyglyceryl-4 Laurate/Dilauryl Citrate)
Subsequently, the sample was mixed using a shaker for approx. 1 min and maintained for 10 min in an ultrasonic bath to achieve a higher dispersion level.
0.5 mg of scytonemin was weighed out on an analytical balance and suspended in 5 g of the composition: • 7) glycerin+glycerol stearate+water+silica+alcohol
The sample was stirred for 5 min using a laboratory stirrer

With scytonemin as the substance, how does the “Maximum of weight loss (decomposition maximum)” value [1] read?
The value was 380.3 °C.

And the “T range of decomposition” value [1]?
The value was 365.4-380.3 °C.

What about the “absorbance spectra before and after the storage test” value [2] of the same substance?
Its value is “identical”.

What about the “characteristic absorbance spectra after continuous UVA irradiation” value ([3]; 2 months, UVA 5 W/m2) of the same substance?
The value was “practically unchanged”.

What about the “characteristic absorbance spectra after heating” value ([3]; heating to 60° C. for 2 months) of the same substance?
The value was “practically unchanged”.

What about the “Specific extinction/1% at 305 nm” value ([4]; 305 nm) of the same substance?
Its value is 330.

And the “Specific extinction/1% to 393 nm” value ([4]; 393 nm)?
Its value is 730.

And the dispersion level ([5]; 0.5 mg in 1 g 2-octyldodecan-1-ol ODD (solution 5))?
The dispersion level was “Relatively high dispersion level”.

And the dispersion level ([5]; 0.5 mg in 1 g SLP Emulsifier (solution 6))?
The dispersion level was “Low dispersion level”.

And the dispersion level ([5]; 0.5 mg in 1 g glycerin (solution 3))?
The dispersion level was “Low dispersion level”.

What about the dispersion level ([5]; 0.5 mg in 1 g isohexadecane (solution 4)) of the same substance?
Its dispersion level is “High dispersion level”.

What about the dispersion level ([5]; 0.5 mg in 1 g propylene glycol (solution 1)) of the same substance?
Its dispersion level is “High dispersion level”.

What about the dispersion level ([5]; 0.5 mg in 1 g refined apricot oil (solution 2)) of the same substance?
The dispersion level was “Very low dispersion level”.

And the “dispersion / dissolution in raw material base” value ([5]; 0.5 mg in 5 g glycerin+glycerol stearate+water+silica+alcohol (composition 7), stirred 5 min)?
The value was “did not dissolve but disintegrated into smaller particles”.
